According to patent US20150272922A1, “Compounds for Reducing Glucocorticoids, and Methods of Treatment Thereof” (BIONICHE LIFE SCIENCES INC., priority 2012, published 2015):
Values after ≈ are worked out from the molar mass of the structure shown. Like-named read-outs stand apart in the source and are kept apart here.

Test system: trout head kidney tissue
Test: Cortisol lowering activity in trout head kidney slice model (ACTH-stimulated cortisol release)
Format: cell-based, rainbow trout (Oncorhynchus mykiss)
Conditions: for effect on cortisol production: 60 μg/ml, ACTH 1 U/ml; for EC50: Oncorhynchus mykiss; for concentration dependence of effect on cortisol production: ACTH 1 U/mL
Procedure: Head kidney tissue was isolated using a modified method as described by Conde-Sieira et al. (2013). Fish were anaesthetized with benzocaine (30-35 mg/L), blood was removed from the caudal vein using a 3 mL heparinized syringe and the fish euthanized by spinal transection. The vasculature was perfused through the post-cardinal vein with 40 mL of modified Hanks' medium (92.56 mM NaCl, 3.63 mM KCl, 0.55 mM MgSO4, 0.4 mM KH2PO4, 0.23 Na2HPO4, 7.5 mM Hepes, 2.81 mM NaHCO3, 0.85 mM CaCl2, 0.03% (w/v) bovine albumin serum) containing EGTA (1 mM final) adjusted to pH 7.64. The entire head kidney was removed from the trout and transferred to a 15 mL chilled glass petri dish containing modified Hanks' medium (pH 7.15). The tissue was weighed then transferred to a 35 mL chilled glass petri dish containing […] modified Hanks' medium per gram of tissue supplemented with MEM amino acid solution (50×; 2 mL/100 mL medium; Sigma—M5550), MEM non-essential amino acid solution (100×; 1 mL/100 mL medium; Sigma˜M7145) and Antibiotic-Antimycotic (100×; 1 mL/100 mL medium; Life Technologies˜15240). The tissue was chopped finely with a razor blade then separated further using a rubber policeman. The tissue was incubated at 13° C. with gentle agitation for 1.5 h to ensure basal levels of cortisol release. Optimal incubation times were determined in previous experiments (Conde-Sieira et al., 2013).
Following the 1.5 h pre-incubation, tissue was placed in 48-well culture plates (approximately 25 mg tissue pre well) along with a final volume of 250 μL modified Hanks' medium. There were two wells for each compound treatment; one control (−ACTH) and one stimulated (+ACTH) that were conducted simultaneously. Tissues were incubated with compounds of the disclosure (60 μg/mL) initiated at the same time as determined in previous experiments (Mullally et al., 2012) for 60 min at 13° C. with gentle agitation and stimulated with 1 U/mL ACTH (Sigma-Aldrich). The compounds were dissolved in ethanol and DMSO (final concentration of DMSO: 0.3% v/v, ethanol 1% v/v) by vortexing for 1 min and sonication for 30 s if the compound was not fully dissolved (determined by visual inspection). After incubation, tissue and supernatant were collected and transferred to pre-weighed 1.5 mL conical plastic tubes and centrifuged (14 000 RCF, 10 min). The supernatant was collected and transferred into a new 1.5 mL conical plastic tube and flash frozen in liquid nitrogen for subsequent cortisol assay. The mass of tissue for each sample was determined by weighing the remaining tissue in the pre-weighed tubes. Four control wells were prepared for each preparation: modified Hanks' medium, modified Hanks' medium plus ACTH (1 U/mL), DMSO/ethanol blank (0.3% v/v DMSO, 1% v/v ethanol) and DMSO/ethanol blank plus ACTH (1 U/mL).
Cortisol concentrations were assessed using a ^125I RIA kit (MP Biomedicals, Irvine, Calif., USA) as per the manufacturer's instructions and read using a Packard® Cobra™ Auto-Gamma Counter. Counts were normalized to tissue weights in each experimental well.
Data are presented as % change in ACTH-stimulated cortisol release relative to control preparation (modified Hanks' medium stimulated with ACTH) using GraphPad Prism software (GraphPad Software, Inc., La Jolla, Calif.). […] GraphPad Prism software (GraphPad Software, Inc., La Jolla, Calif.) was used to graph and calculate EC50 values by fitting a sigmoidal curve to the dose response data as well as linear regressions between Log P of compounds of the disclosure vs log cortisol responses.

[1] = read-out: calculated EC50, approximate (inhibition of cortisol production)
[2] = GraphPad Prism fit, n=3-7, FIG. 3, read-out: EC50, four parameter sigmoidal curve (ACTH-stimulated cortisol release)

Row | SMILES | effect on cortisol production | EC50 [1] | EC50 [2] | concentration dependence of effect on cortisol production (dose response) | EC50 (ACTH-stimulated cortisol release, dose response, FIG. 3, read-out: calculated EC50, approximate (inhibition of cortisol production))
1 | COC(=O)[C@]12CC[C@@H](C(C)O)C1C1CCC3[C@@]4(C)CC[C@H](O)C(C)(C)C4CC[C@@]3(C)[C@]1(C)CC2 (single isomer, unassigned) [Compound 1546] | lowered cortisol production | ~9 mg/L (≈ 19 µM) | 9.5 mg/L (≈ 20 µM) | – | –
2 | C=C(C)[C@@H]1CC[C@]2(/C=C/C(=O)OCC)CC[C@]3(C)C(CCC4[C@@]5(C)CC[C@H](O)C(C)(C)C5CC[C@]43C)C12 (some centres unmarked) [Compound 1529, Vinylogous ethyl betulinate] | lowered cortisol production | – | 116 mg/L (≈ 227 µM) | – | –
3 | C=C(C)[C@@H]1CC[C@]2(C(=O)OC)CC[C@]3(C)C(CCC4[C@@]5(C)C[C@@H](O)C(=O)C(C)(C)C5CC[C@]43C)C12 (stereo partly drawn) [Compound 1521, Methyl 2α-hydroxy betulonate] | lowered cortisol production | – | – | – | –
4 | CC(=O)[C@@H]1CC[C@]2(C(=O)O)CC[C@]3(C)[C@H](CC[C@@H]4[C@@]5(C)CC[C@H](O)C(C)(C)[C@@H]5CC[C@]43C)[C@@H]12 [Compound 1516, Platanic Acid] | lowered cortisol production | ~9 mg/L (≈ 19.6 µM) | 9.4 mg/L (≈ 20.5 µM) | inhibited cortisol production in a dose-dependent manner | –
5 | COC(=O)[C@]12CC[C@@H](C)[C@H](C)[C@H]1C1=CCC3[C@@]4(C)C[C@@H](O)C(=O)C(C)(C)C4CC[C@@]3(C)[C@]1(C)CC2 (stereo partly drawn) [Compound 1537, Methyl 2α-hydroxy-3-oxo-urs-12-en-28-oate] | lowered cortisol production | – | 28.2 mg/L (≈ 58.2 µM) | inhibited cortisol production in a dose-dependent manner | ~28 mg/L (≈ 57.8 µM)
